pIC50: −log10 of the molar value.

The experiment has as its target SARS-CoV-2 3CL-protease (Severe acute respiratory syndrome coronavirus 2, UniProt P0DTD1). Kind of experiment: SARS-CoV-2 3C-like (3CL) protease fluorescence assay (FRET). Type of experiment: biochemical. As to conditions: recombinant SARS-CoV-2 3CL-protease 10 nM, 30 min preincubation at RT, duplicate; read-out: FRET IC50.
As for `N#C[C@@H]1C[C@@]2(CN1C(=O)[C@H](Cc1ccccc1)C(=O)NC1CCCCC1)C(=O)Nc1ccccc12` [Example 118], the pIC50 is 6.00 to 7.00.
For the compound `N#C[C@@H]1C[C@@]2(CN1C(=O)[C@@H](Cc1ccccc1)C(=O)NC1CCCCC1)C(=O)Nc1ccccc12` [Example 119], the pIC50 is below 6.00.
With `N#C[C@@H]1C[C@@]2(CN1C(=O)[C@H](Cc1ccccc1)C(=O)Nc1ccccc1)C(=O)Nc1ccccc12` [Example 120], the negative logarithm of the IC50 (pIC50) is 6.00 to 7.00.
With `N#C[C@@H]1C[C@@]2(CN1C(=O)[C@@H](Cc1ccccc1)C(=O)Nc1ccccc1)C(=O)Nc1ccccc12` [Example 121], the pIC50 is below 6.00.
Under `CC(C)S(=O)(=O)N1C[C@]2(C[C@H]1C#N)C(=O)Nc1ccccc12` [Example 122] stands below 6.00; under `CCOC(=O)C(=O)N1C[C@]2(C[C@H]1C#N)C(=O)Nc1ccccc12` [Example 123], below 6.00.
Under `CC(C)OC(=O)C(=O)N1C[C@]2(C[C@H]1C#N)C(=O)Nc1ccccc12` [Example 124] stands below 6.00.
Take `N#C[C@@H]1C[C@@]2(CN1C(=O)C(=O)OC1CC1)C(=O)Nc1ccccc12` [Example 125]: the negative logarithm of the IC50 (pIC50) is below 6.00.
As to `N#C[C@@H]1C[C@@]2(CN1C(=O)C(=O)OCc1ccccc1)C(=O)Nc1ccccc12` [Example 126], the pIC50 was below 6.00.
Regarding `N#C[C@@H]1C[C@@]2(CN1C(=O)C(=O)OCc1nccs1)C(=O)Nc1ccccc12` [Example 127], the pIC50 was below 6.00.
On to `N#C[C@@H]1C[C@@]2(CN1S(=O)(=O)C1CCCC1)C(=O)Nc1ccccc12` [Example 128], for which the pIC50 is below 6.00.
Regarding `N#C[C@@H]1C[C@@]2(CN1S(=O)(=O)C1CCCCC1)C(=O)Nc1ccccc12` [Example 129], the pIC50 is below 6.00.
Under `N#C[C@@H]1C[C@@]2(CN1C(=O)NCc1cc3ccccc3[nH]1)C(=O)Nc1ccccc12` [Example 130] stands below 6.00; under `N#C[C@@H]1C[C@@]2(CN1C(=O)NCCc1cc3ccccc3[nH]1)C(=O)Nc1ccccc12` [Example 131], below 6.00; under `CC(C)C(=O)NN1C[C@]2(C[C@H]1C#N)C(=O)Nc1ccccc12` [Example 139], below 6.00.
To `N#C[C@@H]1C[C@@]2(CN1NC(=O)C1CC1)C(=O)Nc1ccccc12` [Example 140] belongs below 6.00.
Under `N#C[C@@H]1C[C@@]2(CN1NC(=O)C1CCCCC1)C(=O)Nc1ccccc12` [Example 141] stands below 6.00; under `N#C[C@@H]1C[C@@]2(CN1NC(=O)c1ccccc1)C(=O)Nc1ccccc12` [Example 142], below 6.00; under `CC1(C)CCC(NC(=O)C(=O)N2C[C@]3(C[C@H]2C#N)C(=O)Nc2ccccc23)CC1` [Example 143], below 6.00.
Turning to `N#C[C@@H]1C[C@@]2(CN1C(=O)C(=O)N[C@H]1CC[C@@H](NC(=O)OCc3ccccc3)CC1)C(=O)Nc1ccccc12` [Example 145], the negative-log IC50 (pIC50) is below 6.00.
Regarding `N#C[C@@H]1C[C@@]2(CN1C(=O)C(=O)N[C@H]1CCC(F)(F)C1)C(=O)Nc1ccccc12` [Example 146], the pIC50 is 6.00 to 7.00.
Under `CC(C)(C)OC(=O)N[C@@H]1CCC[C@@H]1NC(=O)C(=O)N1C[C@]2(C[C@H]1C#N)C(=O)Nc1ccccc12` [Example 147] stands 6.00 to 7.00; under `N#C[C@@H]1C[C@@]2(CN1C(=N)C1CC1)C(=O)Nc1ccccc12` [Example 148], below 6.00; under `N#C[C@@H]1C[C@@]2(CN1C(=O)C(=O)N[C@H]1CC[C@H](C(F)(F)F)CC1)C(=O)Nc1ccccc12` [Example 149], below 6.00.
As to `CC(C)(C)OC(=O)N[C@H]1CC[C@@H](NC(=O)C(=O)N2C[C@]3(C[C@H]2C#N)C(=O)Nc2ccccc23)CC1` [Example 150], the pIC50 is below 6.00.
For the compound `N#C[C@@H]1C[C@@]2(CN1C(=O)C(=O)N[C@H]1CC[C@@H](NC(=O)c3ccccc3)CC1)C(=O)Nc1ccccc12` [Example 151], the pIC50 is below 6.00.
In the case of `CC(C)(C)OC(=O)N[C@H]1CC[C@@H](NC(=O)C(=O)N2C[C@]3(C[C@H]2C#N)C(=O)Nc2ccccc23)C1` [Example 152], the negative logarithm of the IC50 (pIC50) was below 6.00.
To `CC(C)(C)OC(=O)N[C@H]1CCC[C@@H]1NC(=O)C(=O)N1C[C@]2(C[C@H]1C#N)C(=O)Nc1ccccc12` [Example 153] belongs below 6.00.
Under `N#C[C@@H]1C[C@@]2(CN1C(=O)C(=O)NCC1CCCCC1)C(=O)Nc1ccccc12` [Example 154] stands 6.00 to 7.00; under `N#C[C@@H]1C[C@@]2(CN1C(=O)C(=O)NCCC1CCCCC1)C(=O)Nc1ccccc12` [Example 155], 6.00 to 7.00.
With `CCCCCCNC(=O)C(=O)N1C[C@]2(C[C@H]1C#N)C(=O)Nc1ccccc12` [Example 156], the pIC50 is 6.00 to 7.00.
Under `N#C[C@@H]1C[C@@]2(CN1C(=O)C(=O)NCC13CC4CC(CC(C4)C1)C3)C(=O)Nc1ccccc12` [Example 158] stands above 7.00.
To `N#C[C@@H]1C[C@@]2(CN1C(=O)C(=O)NCCc1ccccc1)C(=O)Nc1ccccc12` [Example 159] belongs below 6.00; to `N#C[C@@H]1C[C@@]2(CN1C(=O)C(=O)NCCCc1ccccc1)C(=O)Nc1ccccc12` [Example 160], 6.00 to 7.00.
To `N#C[C@@H]1C[C@@]2(CN1C(=O)C(=O)Nc1cc(C(F)(F)F)ccn1)C(=O)Nc1ccccc12` [Example 161] belongs below 6.00; to `N#C[C@@H]1C[C@@]2(CN1C(=O)C(=O)Nc1ccc(C(F)(F)F)cn1)C(=O)Nc1ccccc12` [Example 162], below 6.00; to `Cc1ccc(NC(=O)C(=O)N2C[C@]3(C[C@H]2C#N)C(=O)Nc2ccccc23)nc1` [Example 163], below 6.00.
For `N#C[C@@H]1C[C@@]2(CN1C(=O)C(=O)Nc1ccc(C(F)(F)F)nc1)C(=O)Nc1ccccc12` [Example 164], the pIC50 is below 6.00.
Consider `N#C[C@@H]1C[C@@]2(CN1C(=O)C(=O)Nc1cccnc1C(F)(F)F)C(=O)Nc1ccccc12` [Example 165], for which the pIC50 is below 6.00.
Under `N#C[C@@H]1C[C@@]2(CN1C(=O)C(=O)Nc1cccc(C(F)(F)F)n1)C(=O)Nc1ccccc12` [Example 166] stands below 6.00; under `N#C[C@@H]1C[C@@]2(CN1C(=O)C(=O)Nc1ccnc(C(F)(F)F)c1)C(=O)Nc1ccccc12` [Example 167], below 6.00; under `Cc1cccc(NC(=O)C(=O)N2C[C@]3(C[C@H]2C#N)C(=O)Nc2ccccc23)n1` [Example 168], below 6.00.
To `CC(=O)N[C@H]1CC[C@@H](NC(=O)C(=O)N2C[C@]3(C[C@H]2C#N)C(=O)Nc2ccccc23)CC1` [Example 169] belongs below 6.00; to `N#C[C@@H]1C[C@@]2(CN1C(=O)CC(=O)N[C@@H]1CCC[C@@H]1O)C(=O)Nc1ccccc12` [Example 170], below 6.00; to `N#C[C@@H]1C[C@@]2(CN1C(=O)CC(=O)N[C@H]1CCC[C@@H]1O)C(=O)Nc1ccccc12` [Example 171], below 6.00.
For the compound `N#C[C@@H]1C[C@@]2(CN1C(=O)CC(=O)N[C@@H]1CCC[C@H]1O)C(=O)Nc1ccccc12` [Example 172], the pIC50 was below 6.00.
As for `N#C[C@@H]1C[C@@]2(CN1C(=O)CC(=O)N[C@H]1CCC[C@H]1O)C(=O)Nc1ccccc12` [Example 173], the pIC50 was below 6.00.
To `CC(C)(C)OC(=O)N[C@@H]1CC[C@H](NC(=O)C(=O)N2C[C@]3(C[C@H]2C#N)C(=O)Nc2ccccc23)C1` [Example 174] belongs below 6.00.

Source of the values: patent publication US20230159546A1, “NOVEL SPIROPYRROLIDINE DERIVED ANTIVIRAL AGENTS” (Enanta Pharmaceuticals, Inc., priority 2021, published 2023).
